Measured values as given in patent US20100255020A1, “METHOD FOR INDUCING CYTOTOXIC T-CELLS, CYTOTOXIC T-CELL INDUCERS, AND PHARMACEUTICAL COMPOSITIONS AND VACCINES EMPLOYING THEM” (NEC CORPORATION, priority 2007, published 2010).
Several values for one entry are separate records, joined by “and”; a condition that tells them apart may be missing. Identical values can stand only once. Where no end group is shown, it is not given here.

Key:
HLA-A*0206 molecule = biological target: T1, HLA-A*0206 molecule (Homo sapiens, UniProt P04439, D140Y/D185E/D98H/E176V/E277Q/F33Y/G131W/G231S/I119V/I121R/I166T/I218V/L300P/L318F/N151K/N90K/P208A/P217A/Q86G/Q94H/R138H/R169H/T345S); assay: Peptide binding to HLA-A*0206 molecule on RA2.6 cells (flow cytometry, Kd); conditions: HLA-A*0206, RA2.6 cells; read-out: Binding assay data (−log Kd) (converted)
T1 construct: expressed in transfected cells; host or cells: RA2.6 (mouse TAP-deficient RMAS cells transfected with pMKITneo bearing HLA-A*0206 cDNA)
Protocol: The ability of a peptide to bind to an HLA-A*0206 molecule, which is a product of the HLA-A*0206 gene, was measured using RA2.6 cells (cell line newly generated in Kochi University), wherein cDNA of the HLA-A*0206 gene is introduced into RMAS, which is a mouse TAP (transporter associated with antigen processing)-deficient cell line.
RA2.6 cells were first cultured overnight at 26° C., during this incubation HLA-A*0206 molecules devoid of bound peptide accumulated. Serial dilutions of peptide were added to these cells and peptide binding was carried out at room temperature for 30 minutes.
Subsequently, culture was carried out at 37° C. for 3.5 hours, during this incubation empty HLA-A*0206 molecules to which no peptide was bound were denatured, and the tertiary structure was lost.
The cells were stained by adding thereto fluorescently-labeled monoclonal antibody BB7.2, which specifically recognizes the peptide-bound HLA-A*0206 molecule, and incubating on ice for 20 minutes.
Subsequently, the amount of fluorescence per cell was measured using a flow cytometer, and a dissociation constant Kd value was calculated by a method published in the literature (Udaka et al., Immunogenetics, 51, 816-828, 2000).

malignant tumors = assay: Peptide immunotherapy of patients, tumor response by RECIST criteria (CT/MRI); format: in vivo, human; design: key to RECIST, single lung metastasis / RECIST, total sum of longest diameters of 10 metastatic target lesions / RECIST, pubic bone metastatic tumor / RECIST determination 3 months after starting W10 peptide therapy: CR: all target lesions have disappeared; PR: the sum of the longest diameters of the target lesions decreases by at least 30%; PD: the sum of the longest diameters of the target lesions increases by at least 20%; SD: the change of tumr size is between PR or PD
Protocol: Among 18 patients, 3 people are illustrated in the style of case reports. […] The mixture was prepared immediately prior to administration. When W10 peptide was administered without petussis vaccine in the safety test, W10 peptide solution was divided into 4 equal portions and injected intradermally at 4 locations in the same manner. A method to measure the diameter of a tumor and a method to analyze peptide-specific T-cells using an HLA-A24 tetramer by flow cytometry are described below.
The international RECIST criteria referred to here is an evaluation standard described in Theresse, P. et al., J Natl Cancer Inst. 2000, 92, 205-216. When there is confirmation by helical CT or MRI that all target lesions have disappeared this is defined as CR (complete response), when the sum of the longest diameters of the target lesions decreases by at least 30% this is defined as PR (partial response), when the sum of the longest diameters of the target lesions increases by at least 20% this is defined as PD (progressive disease), and when the change of tumr size is between PR or PD this is defined as SD (stable disease). However, regardless of the presence or absence of a change in the target lesions, when even one new lesion appears this is defined as PD.
Based on the above-mentioned international RECIST criteria, which is used for evaluation of anticancer drugs, all measurable tumors were selected as target tumors, and change in the SLD of the tumors over the course of the therapy was monitored. In addition, number of all the tumors was counted, regardless of the size of a tumor, every time diagnostic imaging was carried out in order to lookout for new lesions. Diagnostic imaging was carried out in principle once a month by helical CT or MRI. If even one new metastasis appeared, regardless of the change in the primary lesion, it was judged as PD.
Clinical responses were evaluated according to the aforementioned international RECIST criteria for 18 patients who had been treated by immunotherapy using W10+Wc for at least 3 months and one week. Eight cased out of 18 patients were judged as SD, 10 cased were PD. […] In reports on peptide immunotherapy so far, the tumor control rate was limited to a few % up to ten or so % worldwide (Reference Documents 1 to 4). Compared with these already reported cases, this is a good reaction.

[1] = human, in vivo
Text: Patients were monitored for adverse events after the peptide administration in accordance with evaluation criteria for an adverse event, CTCAE (Common Terminology Criteria for Adverse Events v3.0 by JCOG/JSCO-Oct. 27, 2004).
Adverse event was monitored up to 1 week after the last immunization.
Criteria for determining an adverse event is in accordance with CTCAE (Common Terminology Criteria for Adverse Events v3.0) by JCOG/JSCO-Oct. 27, 2004; when the grade was 2/3 the test therapy was suspended, and when the grade was 4 or greater, the test therapy was terminated regardless of causal relationship to the test therapy.

**Q.** Which Kd (HLA-A*0206 molecule) does the source give for ALLPAVPSL [W10] here?
**A.** The Kd was 18.2 nM.

**Q.** What about the “Duration of tumor control (weeks)” value (malignant tumors; one line per patient case, W10+Wc immunotherapy, weekly intradermal, listed as W10 peptide) of the same sequence?
**A.** Its value is 37 weeks and 30 weeks and 32 weeks and 10 weeks and 4 weeks and 0 weeks (6×) and 6 weeks and 17 weeks and 19 weeks and 12 weeks and 33 weeks and 38 weeks.

**Q.** And the “RECIST determination 3 months after starting W10 peptide therapy” value (malignant tumors; one line per patient case, W10+Wc immunotherapy, listed as W10 peptide)?
**A.** The value was “SD (7×) and SD > PD and PD (the sum of the longest diameters of the target lesions increases by at least 20%) (10×)”.

**Q.** What about the “RECIST, pubic bone metastatic tumor” value (malignant tumors; patient KB07-003, maintained for 37 weeks) of the same sequence?
**A.** The value was “SD”.

**Q.** What about the New metastatic tumors (malignant tumors; patient KB07-003, since W10 therapy started) of the same sequence?
**A.** Its New metastatic tumors is “no new metastatic tumors have been found”.

**Q.** And the “Growth of metastatic tumor in the bone (SLD)” value (malignant tumors; patient KB07-005, right femur)?
**A.** Its value is “almost stopped”.

**Q.** And the New distant metastasis (malignant tumors; patient KB07-005, throughout the period)?
**A.** The New distant metastasis was “no new distant metastasis was observed”.

**Q.** What about the “Growth of tumors expressing WT1” value (malignant tumors; patient KB07-006) of the same sequence?
**A.** Its value is “suppressed”.

**Q.** And the “Appearance of new metastatic lesion” value (malignant tumors; patient KB07-006, 13 months after starting W10 peptide)?
**A.** The value was “no appearance of a new metastatic lesion”.

**Q.** And the “RECIST, total sum of longest diameters of 10 metastatic target lesions” value (malignant tumors; patient KB07-006, CT on the 37th week)?
**A.** The value was “PD (the sum of the longest diameters of the target lesions increases by at least 20%)”.

**Q.** And the “RECIST, total sum of longest diameters of 10 metastatic target lesions” value (malignant tumors; patient KB07-006, adenoid cystic carcinoma, up to 32 weeks)?
**A.** Its value is “SD”.

**Q.** And the “Adverse event due to peptide immunotherapy” value [1]?
**A.** Its value is “no adverse event due to peptide immunotherapy was observed, except for an erythema and mild swelling at the site of immunization”.

**Q.** What about the “Creatinine (Cre) adverse event” value [1] of the same sequence?
**A.** Its value is “Grade 2 increase of Cre”.
